According to PubChem BioAssay (NCI):
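Abbreviation: GI50, concentration required for 50% inhibition of growth. Definition used: TGI = concentration required for complete inhibition of growth.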

Columns and labels:
Assay in all cases: NCI anticancer screen, dose series, 384-well format
SN12C renal = test system: SN12C renal
HOP-62 NSCLC = test system: HOP-62 NSCLC
IGROV1 ovarian = test system: IGROV1 ovarian
SNB-75 CNS = test system: SNB-75 CNS
OVCAR-4 ovarian = test system: OVCAR-4 ovarian
U251 glioblastoma = test system: U251 glioblastoma
A549 NSCLC = test system: A549 NSCLC
M14 melanoma = test system: M14 melanoma
SF-295 CNS = test system: SF-295 CNS
NCI/ADR-RES ovarian = test system: NCI/ADR-RES ovarian
EKVX NSCLC = test system: EKVX NSCLC
OVCAR-3 ovarian = test system: OVCAR-3 ovarian
LOX IMVI melanoma = test system: LOX IMVI melanoma
RPMI-8226 leukemia = test system: RPMI-8226 leukemia
SK-MEL-2 melanoma = test system: SK-MEL-2 melanoma
CCRF-CEM leukemia = test system: CCRF-CEM leukemia
CAKI-1 renal = test system: CAKI-1 renal
OVCAR-8 ovarian = test system: OVCAR-8 ovarian
PC-3 prostate = test system: PC-3 prostate
T-47D breast = test system: T-47D breast
HOP-92 NSCLC = test system: HOP-92 NSCLC
NCI-H322M lung = test system: NCI-H322M lung
SK-OV-3 ovarian = test system: SK-OV-3 ovarian
UACC-62 melanoma = test system: UACC-62 melanoma
SR leukemia = test system: SR leukemia
HCC-2998 colon = test system: HCC-2998 colon
MCF7 breast = test system: MCF7 breast
ACHN renal = test system: ACHN renal
UO-31 renal = test system: UO-31 renal
MDA-MB-435 melanoma = test system: MDA-MB-435 melanoma
UACC-257 melanoma = test system: UACC-257 melanoma
SK-MEL-28 melanoma = test system: SK-MEL-28 melanoma
MDA-MB-468 breast = test system: MDA-MB-468 breast
SK-MEL-5 melanoma = test system: SK-MEL-5 melanoma
NCI-H522 lung = test system: NCI-H522 lung
OVCAR-5 ovarian = test system: OVCAR-5 ovarian
BT-549 breast = test system: BT-549 breast
HT29 colon = test system: HT29 colon
RXF 393 renal = test system: RXF 393 renal
SW-620 colon = test system: SW-620 colon
SF-539 CNS = test system: SF-539 CNS
SF-268 CNS = test system: SF-268 CNS
NCI-H23 lung = test system: NCI-H23 lung
HS 578T breast = test system: HS 578T breast
NCI-H460 NSCLC = test system: NCI-H460 NSCLC
COLO 205 colon = test system: COLO 205 colon
MALME-3M melanoma = test system: MALME-3M melanoma

C=CC(=O)N1CCN(CCCn2c(=O)c(-c3c(Cl)c(OC)cc(OC)c3Cl)cc3cnc(NC)nc32)CC1 was tested, and the GI50 (SN12C renal) was 2.36 µM, the TGI (SN12C renal) was 12.2 µM and the GI50 (HOP-62 NSCLC) was 3.06 µM. For the same molecule, the TGI (HOP-62 NSCLC) was 12.1 µM, the GI50 (IGROV1 ovarian) was 0.888 µM and the TGI (IGROV1 ovarian) was 7.23 µM. It also gave a GI50 (SNB-75 CNS) of 0.211 µM, a TGI (SNB-75 CNS) of 4.88 µM and a GI50 (OVCAR-4 ovarian) of 3.14 µM. For the same molecule, the TGI (OVCAR-4 ovarian) was 18 µM, the GI50 (U251 glioblastoma) was 3.72 µM and the TGI (U251 glioblastoma) was 16 µM. For the same molecule, the GI50 (A549 NSCLC) was 3.23 µM, the TGI (A549 NSCLC) was 14.4 µM and the GI50 (M14 melanoma) was 2.11 µM. The TGI (M14 melanoma) was 16.1 µM, the GI50 (SF-295 CNS) was 8.31 µM and the TGI (SF-295 CNS) was 38.1 µM. The GI50 (NCI/ADR-RES ovarian) was 7.93 µM, the TGI (NCI/ADR-RES ovarian) was 21.3 µM and the GI50 (EKVX NSCLC) was 5.95 µM. For the same molecule, the TGI (EKVX NSCLC) was 19.6 µM, the GI50 (OVCAR-3 ovarian) was 2.21 µM and the TGI (OVCAR-3 ovarian) was 13.6 µM. It also gave a GI50 (LOX IMVI melanoma) of 2.63 µM, a TGI (LOX IMVI melanoma) of 15.6 µM and a GI50 (RPMI-8226 leukemia) of 0.759 µM. The TGI (RPMI-8226 leukemia) was 2.39 µM, the GI50 (SK-MEL-2 melanoma) was 1.7 µM and the TGI (SK-MEL-2 melanoma) was 5.09 µM. For the same molecule, the GI50 (CCRF-CEM leukemia) was 1.51 µM, the TGI (CCRF-CEM leukemia) was 3.29 µM and the GI50 (CAKI-1 renal) was 0.478 µM. The TGI (CAKI-1 renal) was 3.49 µM, the GI50 (OVCAR-8 ovarian) was 5.9 µM and the TGI (OVCAR-8 ovarian) was 19.2 µM. The GI50 (PC-3 prostate) was 3.56 µM, the TGI (PC-3 prostate) was 12.4 µM and the GI50 (T-47D breast) was 2.86 µM. It also gave a TGI (T-47D breast) of 16.1 µM, a GI50 (HOP-92 NSCLC) of 1.61 µM and a TGI (HOP-92 NSCLC) of 6.96 µM. For the same molecule, the GI50 (NCI-H322M lung) was 5.16 µM, the TGI (NCI-H322M lung) was > 39.6 µM and the GI50 (SK-OV-3 ovarian) was 1.1 µM. The TGI (SK-OV-3 ovarian) was 9.48 µM, the GI50 (UACC-62 melanoma) was 1.9 µM and the TGI (UACC-62 melanoma) was 11.8 µM. For the same molecule, the GI50 (SR leukemia) was 1.29 µM, the TGI (SR leukemia) was 3.04 µM and the GI50 (HCC-2998 colon) was 9.16 µM. The TGI (HCC-2998 colon) was 22 µM, the GI50 (MCF7 breast) was 7.95 µM and the TGI (MCF7 breast) was 20.7 µM. For the same molecule, the GI50 (ACHN renal) was 0.975 µM, the TGI (ACHN renal) was 11.3 µM and the GI50 (UO-31 renal) was 3.72 µM. It also gave a TGI (UO-31 renal) of 15.9 µM, a GI50 (MDA-MB-435 melanoma) of 4.33 µM and a TGI (MDA-MB-435 melanoma) of 14.7 µM. The GI50 (UACC-257 melanoma) was 4.44 µM, the TGI (UACC-257 melanoma) was 16 µM and the GI50 (SK-MEL-28 melanoma) was 15.1 µM. The TGI (SK-MEL-28 melanoma) was 39.5 µM, the GI50 (MDA-MB-468 breast) was 0.95 µM and the TGI (MDA-MB-468 breast) was 2.68 µM. It also gave a GI50 (SK-MEL-5 melanoma) of 2.35 µM, a TGI (SK-MEL-5 melanoma) of 13.1 µM and a GI50 (NCI-H522 lung) of 2.66 µM. For the same molecule, the TGI (NCI-H522 lung) was 11.8 µM, the GI50 (OVCAR-5 ovarian) was 18.1 µM and the TGI (OVCAR-5 ovarian) was 46.3 µM. The GI50 (BT-549 breast) was 0.369 µM, the TGI (BT-549 breast) was 3.1 µM and the GI50 (HT29 colon) was 4.61 µM. The TGI (HT29 colon) was 16.8 µM, the GI50 (RXF 393 renal) was 0.665 µM and the TGI (RXF 393 renal) was 3.03 µM. For the same molecule, the GI50 (SW-620 colon) was 3.22 µM, the TGI (SW-620 colon) was 9.31 µM and the GI50 (SF-539 CNS) was 3.7 µM. The TGI (SF-539 CNS) was 16.4 µM, the GI50 (SF-268 CNS) was 1.22 µM and the TGI (SF-268 CNS) was 7.03 µM. The GI50 (NCI-H23 lung) was 3.72 µM, the TGI (NCI-H23 lung) was 15.3 µM and the GI50 (HS 578T breast) was 0.327 µM. The TGI (HS 578T breast) was 2.35 µM, the GI50 (NCI-H460 NSCLC) was 2.51 µM and the TGI (NCI-H460 NSCLC) was 12.7 µM. The GI50 (COLO 205 colon) was 10.9 µM, the TGI (COLO 205 colon) was 22.9 µM and the GI50 (MALME-3M melanoma) was 1.92 µM. It also gave a TGI (MALME-3M melanoma) of 9.84 µM.
